Like-named read-outs stand apart in the source and are kept apart here.
Tests used:
[1] = Evaluation of pharmacokinetic activity in male SD rats (iv and oral); format: in vivo; conditions: for Vd: read-out: Vss; for bioavailability: po 5 mg/kg vs iv 1 or 2 mg/kg
Description: 1. Preparation of the Test Compound Solutions
The test compound solutions were prepared using appropriate amounts of 5% DMSO, 5% KolliphorHS15 and 90% Saline to dissolve each compound completely.
140-190 g male SD rats were randomly divided into two groups. One group was administered through intravenous drug delivery with the dosage of 1.0 or 2.0 mg/kg, and the other group was administered by oral with the dosage of 5.0 mg/kg. For intravenous administration, caudal vein blood samples at the time points of 0.0833, 0.25, 0.5, 1.0, 2.0, 4.0, 6.0, 8.0 and 24 h were collected after drug administration (the time point of drug administration was set as 0 h); and for oral administration, caudal vein blood samples at the time points of 0.25, 0.5, 1.0, 2.0, 4.0, 6.0, 8.0 and 24 h were collected after drug administration (the time point of drug administration was set as 0 h). Appropriate range of standard curve was established according to the sample concentration, and the test compound concentrations in plasma sample were measured by LC-MS/MS analysis. Pharmacokinetic parameters were calculated by non-compartmental method using WinNonLin 6.3 software based on drug concentration-time curves.

MV-4-11 cell = test: In vitro cytology inhibitory activity (MV-4-11 cell proliferation, cell viability luminescence); format: cell-based; conditions: Homo sapiens, MV4-11; MV-4-11 cells, 72 h incubation
Description: Cell assay condition was shown below:
a. A complete medium was prepared and mixed well. b. Cell was recovered, and cell lines of between about two generations in good condition of growth were selected. c. The cell culture flasks were removed from the incubator, and the labeled cell name on the bottles, culture medium type and cell algebra were checked. d. The cell suspension was pipette into a centrifuge tube, and centrifuged at 800-1000 rpm for 3-5 minutes. e. Cell supernatant of the centrifuge tube was aspirated. f. Appropriate volume of culture medium was added into the centrifuge tube, and the cells were resuspended by gentle pipetting uniform. g. Vi-Cell XR cytometer was used for count. h. The cell suspension was adjusted to the appropriate concentration. i. The cell suspension was added to the bottom wall of the white 96-well plate, 100 microliters/well. Cells name, kind of board density and date were detailed labeled, and the culture plate was placed in CO2 incubator overnight.
2. Preparation and Addition of the Test Compounds
i) Preparation of test compound plates by diluting to 10 concentrations with DMSO: first, the test compound stock solution was prepared by dissolving a weighed compound in DMSO to a concentration of 10 mM, and then diluted to the concentration of 4 mM, which was then diluted to the concentration of 0.4 mM used as the highest concentration for testing with DMSO. The highest concentration was sequentially followed by 3-fold dilution for a total of 10 concentrations. Staurosporine was the positive control drug. ii) Addition of test compounds: a. 0.5 μL of test compound prepared above in compound plate was added into the cell culture plate that had been incubated overnight. Then the culture plate was incubated in an incubator at 37° C. for 72 hours.
3. Detection and Analysis
a. 72 hours after the compound treatment, cells was observed under an inverted microscope morphology, and cell growth state in DMSO control well was normal, there was no contamination. b. The cell culture plate was placed in equilibrium at room temperature for 30 minutes. c. The cell viability detection reagent at 100 μL/well was placed into culture plate. d. The mixture in culture plate was mixed two minutes in the vibration plate machine to induce cell lysis. e. 96-well plate was placed for 10 minutes at room temperature, making it stable luminescent signal. f. White base film was pasted on the bottom of the culture plate, and the plate was tested by using Flexstation3 (related to: light, integration time 500 ms). g. Experimental results were recorded and analyzed.

FLT3 kinase = target: T1, FLT3 kinase (Homo sapiens, UniProt P36888); test: In vitro enzymatic inhibitory activity (kinase reaction, FAM-labeled peptide); format: biochemical; conditions: in vitro enzymatic inhibition
T1 sequence (P36888 27-993): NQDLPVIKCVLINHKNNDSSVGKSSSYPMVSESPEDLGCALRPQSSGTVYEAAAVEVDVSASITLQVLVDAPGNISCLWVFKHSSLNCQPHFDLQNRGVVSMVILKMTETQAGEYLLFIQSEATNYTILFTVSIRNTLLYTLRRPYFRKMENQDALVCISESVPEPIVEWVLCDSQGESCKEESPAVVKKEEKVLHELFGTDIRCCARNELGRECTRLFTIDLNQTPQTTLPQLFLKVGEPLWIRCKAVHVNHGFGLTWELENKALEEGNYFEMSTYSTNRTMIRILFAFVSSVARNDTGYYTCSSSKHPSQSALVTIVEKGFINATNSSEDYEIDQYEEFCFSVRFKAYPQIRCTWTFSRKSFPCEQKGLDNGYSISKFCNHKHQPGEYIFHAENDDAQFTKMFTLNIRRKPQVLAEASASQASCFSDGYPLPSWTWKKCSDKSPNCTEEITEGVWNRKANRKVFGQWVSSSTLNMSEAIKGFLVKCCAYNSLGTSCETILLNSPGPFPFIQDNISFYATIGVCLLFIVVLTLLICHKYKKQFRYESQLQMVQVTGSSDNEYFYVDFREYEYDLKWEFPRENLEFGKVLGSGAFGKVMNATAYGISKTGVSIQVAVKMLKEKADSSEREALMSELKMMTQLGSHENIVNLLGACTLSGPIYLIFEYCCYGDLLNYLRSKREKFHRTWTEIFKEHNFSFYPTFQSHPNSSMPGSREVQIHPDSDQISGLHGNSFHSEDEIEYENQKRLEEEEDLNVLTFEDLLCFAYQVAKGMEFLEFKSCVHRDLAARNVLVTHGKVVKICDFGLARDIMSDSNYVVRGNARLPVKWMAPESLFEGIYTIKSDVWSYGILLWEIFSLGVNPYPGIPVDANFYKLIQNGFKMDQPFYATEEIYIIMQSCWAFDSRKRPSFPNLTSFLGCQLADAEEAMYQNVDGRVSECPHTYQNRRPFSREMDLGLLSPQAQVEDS

Question: Which results are given for `CC(C)(C)c1cc(NC(=O)Nc2ccc(C#Cc3ccc(OCCCN4CCOCC4)cc3F)cc2)no1` [Example 4, 1-(5-(tert-Butyl)isoxazol-3-yl)-3-(4-((2-fluoro-4-(3-morpholinopropoxy)phenyl)ethynyl)phenyl) urea]?
Answer: T1/2 ([1]; po, 5 mg/kg): 5.86 h; AUC(0-inf) ([1]; rat, plasma, iv, 2 mg/kg): 6940 ng·h/mL; AUC(0-t) ([1]; rat, plasma, iv, 2 mg/kg): 6570 ng·h/mL; Tmax ([1]; rat, plasma, iv, 2 mg/kg): 0.08 h; half-life ([1]; rat, plasma, iv, 2 mg/kg): 6.23 h; Cmax ([1]; rat, plasma, iv, 2 mg/kg, read-out: Cmax): 2690 ng/mL; Vd ([1]; rat, plasma, iv, 2 mg/kg): 1.83 L/kg; bioavailability ([1]; rat, plasma): 69.3%; AUC(0-inf) ([1]; rat, plasma, po, 5 mg/kg): 12000 ng·h/mL; AUC(0-t) ([1]; rat, plasma, po, 5 mg/kg): 11300 ng·h/mL; Tmax ([1]; rat, plasma, po, 5 mg/kg): 2.67 h; Cmax ([1]; rat, plasma, po, 5 mg/kg, read-out: Cmax): 1370 ng/mL; IC50 (MV-4-11 cell): 5.2 nM; IC50 (FLT3 kinase): 39 nM

Question: Which results are given for `CN1CCN(CCOc2ccc(C#Cc3ccc(NC(=O)Nc4cc(C(C)(C)C)on4)cc3)cc2)CC1` [Example 12, 1-(5-(tert-Butyl)isoxazol-3-yl)-3-(4-((4-(2-(4-methylpiperazin-1-yl)ethoxy)phenyl)ethynyl)phenyl)urea]?
Answer: IC50 (MV-4-11 cell): 1.6 nM; IC50 (FLT3 kinase): 28 nM

Question: With `CC(C)(C)c1cc(NC(=O)Nc2ccc(C#Cc3cnn4ccc(OCCCN5CCOCC5)nc34)cc2)no1` [Example 6, 1-(5-(tert-Butyl)isoxazol-3-yl)-3-(4-((5-(3-morpholinopropoxy)pyrazolo[1,5-a]pyrimidin-3-yl)ethynyl)phenyl)urea] as the compound, how does the IC50 (MV-4-11 cell) read?
Answer: 3.1 nM

Question: And the IC50 (FLT3 kinase)?
Answer: 94 nM

Question: For `CN1CCN(CCCOc2ccc(C#Cc3ccc(NC(=O)Nc4cc(C(C)(C)C)on4)cc3)cc2)CC1` [Example 13, 1-(5-(tert-Butyl)isoxazol-3-yl)-3-(4-((4-(3-(4-methylpiperazin-1-yl)propoxy)phenyl)ethynyl)phenyl)urea], which IC50 (MV-4-11 cell) is on record?
Answer: 2.4 nM

Question: What about the IC50 (FLT3 kinase) of the same compound?
Answer: 23 nM

Question: Which IC50 (MV-4-11 cell) does the source give for `CN(C)C1CCN(CCOc2ccc(C#Cc3ccc(NC(=O)Nc4cc(C(C)(C)C)on4)cc3)cc2)CC1` [Example 14, 1-(5-(tert-Butyl)isoxazol-3-yl)-3-(4-((4-(2-(4-(dimethylamino)piperidin-1-yl)ethoxy)phenyl)ethynyl)phenyl)urea] here?
Answer: 11.4 nM

Question: And the IC50 (FLT3 kinase)?
Answer: 72 nM

Question: With `CC(C)(C)c1cc(NC(=O)Nc2ccc(C#Cc3ccc(OCCCN4CCOCC4)c(Cl)c3)cc2)no1` [Example 2, 1-(5-(tert-Butyl)isoxazol-3-yl)-3-(4-((3-chloro-4-(3-morpholinopropoxy)phenyl)ethynyl)phenyl) urea] as the compound, how does the IC50 (FLT3 kinase) read?
Answer: 75 nM

Question: For `CC(C)(C)c1cc(NC(=O)Nc2ccc(C#Cc3ccc(OCCCN4CCOCC4)c(F)c3)cc2)no1` [Example 1, 1-(5-(tert-Butyl)isoxazol-3-yl)-3-(4-((3-fluoro-4-(3-morpholinopropoxy)phenyl)ethynyl)phenyl)urea], which IC50 (FLT3 kinase) is on record?
Answer: 115 nM

Question: For `CC(C)(C)c1cc(NC(=O)Nc2ccc(C#Cc3ccc(OCCN4CCOCC4)cc3)cc2)no1` [Example 25, 1-(5-(tert-Butyl)isoxazol-3-yl)-3-(4-((4-(2-morpholinoethoxy)phenyl)ethynyl)phenyl)urea], which IC50 (FLT3 kinase) is on record?
Answer: 84 nM

Question: With `CC(C)(C)c1cc(NC(=O)Nc2ccc(C#Cc3ccc(OCCCN4CCC5(COC5)C4)cc3F)cc2)no1` [Example 8, 1-(4-((4-(3-(2-Oxa-6-azaspiro[3.4]octan-6-yl)propoxy)-2-fluorophenyl)ethynyl)phenyl)-3-(5-(tert-butyl)isoxazol-3-yl)urea] as the compound, how does the IC50 (MV-4-11 cell) read?
Answer: 3.4 nM

Question: What about the IC50 (FLT3 kinase) of the same compound?
Answer: 61 nM

Question: Which results are given for `CC(C)(C)c1cc(NC(=O)Nc2ccc(C#Cc3ccc(OCCN4C[C@@H]5OCCO[C@@H]5C4)cc3)cc2)no1` [Example 24, 1-(5-(tert-Butyl)isoxazol-3-yl)-3-(4-((4-(2-((4aR,7aS)-tetrahydro-2H-[1,4]dioxino[2,3-c]pyrro 1-6(3H)-yl)ethoxy)phenyl)ethynyl)phenyl)urea]?
Answer: AUClast ([1]; po, 5 mg/kg): 6770 ng·h/mL; Cmax ([1]; po, 5 mg/kg): 862 ng/mL; T1/2 ([1]; po, 5 mg/kg): 3.9 h; AUC(0-inf) ([1]; rat, plasma, iv, 1 mg/kg): 2160 ng·h/mL; AUC(0-t) ([1]; rat, plasma, iv, 1 mg/kg): 2130 ng·h/mL; Tmax ([1]; rat, plasma, iv, 1 mg/kg): 0.083 h; half-life ([1]; rat, plasma, iv, 1 mg/kg): 4.51 h; Cmax ([1]; rat, plasma, iv, 1 mg/kg, read-out: Cmax): 1340 ng/mL; Vd ([1]; rat, plasma, iv, 1 mg/kg): 1.69 L/kg; bioavailability ([1]; rat, plasma): 63.6%; AUC(0-inf) ([1]; rat, plasma, po, 5 mg/kg): 6870 ng·h/mL; Tmax ([1]; rat, plasma, po, 5 mg/kg): 4 h; IC50 (FLT3 kinase): 160 nM
